Tests used:
[1] = CC50 assay (CellTiter-Glo) in Huh-7 HCV replicon cells; assay type: cell-based; details: human
Protocol: (§1) The anti-HCV activity of the pyrido[3,2-d]pyrimidine derivatives of this invention was tested in a human hepatoma Huh-7 cell line harboring a HCV replicon. The assay comprised the following steps: • Step 1: compound preparation and serial dilution: serial dilution is performed in 50% DMSO in a 384-well plate. A solution containing a compound at 100-fold concentration of the starting final serial dilution concentration was prepared in 50% DMSO and added to the pre-specified wells in column 1 of a polypropylene 384-well plate. The plate was then placed on a Precision 2000 Workstation to start the serial dilution. After the serial dilution, a volume of 2 μL of the solution was transferred from the 384-well plate to a 96-well cell culture plate containing 100 μL of cell media on a Biomek FX Workstation. The DMSO concentration in the final assay condition was 0.5% after cells are added to the plate and the total volume in each well is brought to 200 μL. • Step 2: to each well of the serial dilution plate prepared above, 100 μL of cell media containing 6000 suspended Huh-7 HCV replicon cells was added with a Multidrop workstation. The plates were incubated for 3 days at 37° C. with 5% CO2. • Step 3: detection: • a) for the EC50 assay, the media in a 96-well cell culture plate was aspirated with a Biotek EL405 plate-washer. A volume of 200 μL of a solution containing a 1:1 mixture of cell-lysis buffer (Promega, Luciferase Cell Culture Lysis 5× Reagent, cat. #E1531) and luciferase substrate solution (Promega, Luciferase Assay, cat.# E4550) was added to each well of the plate with Multidrop. The plate was incubated for 30 minutes at room temperature before the luminescence signal was measured with a TopCount plate-reader. • b) for the CC50 assay, a volume of 100 μL of pre-mixed CellTiter-Glo (Promega, cat.# G7572) solution is added directly to the cell culture in each well of the plate and the luminescence signal is measured with a TopCount plate-reader after 10 minutes of incubation at room temperature.

[2] = system: HCV replicon in human hepatoma Huh-7 cell line; experiment: Anti-HCV replicon assay, EC50 (luciferase luminescence); assay type: cell-based; details: Hepatitis C virus, Huh-7, 72 h
Protocol: as §1

Structure (SMILES)	CC50 at 3 days ([1]; Table 2, 3 days incubation)	EC50 [2]	CC50 at 3 days ([1]; Table 1, 3 days incubation)
c1ncn(-c2ccc(CNc3nc(C4CC4)c4nc(-c5ccc(OC6CC6)nc5)ccc4n3)cc2)n1 [Example 267, N-(4-(1H-1,2,4-triazol-1-yl)benzyl)-6-(6-cyclopropoxy-pyridin-3-yl)-4-cyclopropyl-pyrido[3,2-d]pyrimidin-2-amine]	> 10000 nM	100 to 250 nM	
CS(=O)(=O)c1cccc(CNc2nc(NCC(F)(F)F)c3nc(-c4ccc(OC(F)F)c(S(C)(=O)=O)c4)ccc3n2)c1 [Example 174, N^2-(3-(methylsulfonyl)benzyl)-6-(4-(difluoromethoxy)-3-(methylsulfonyl)phenyl)-N^4-(2,2,2-trifluoroethyl)pyrido [3,2-d]pyrimidine-2,4-diamine]	< 1000 nM	< 100 nM	
NS(=O)(=O)c1cc(Cl)cc(CNc2nc(NC3(C(F)(F)F)CC3)c3nc(-c4ccc(F)nc4)ccc3n2)c1 [Example 90, 3-chloro-5-((6-(6-fluoropyridin-3-yl)-4-(1-(trifluoromethyl)cyclopropyl-amino)pyrido[3,2-d]pyrimidin-2-ylamino)methyl)benzene-sulfonamide]	> 10000 nM	< 100 nM	
Fc1ccc(-c2ccc3nc(NCc4cccc(-n5cccn5)c4)nc(NCC(F)(F)F)c3n2)cc1 [Example 2, 6-(4-Fluoro-phenyl)-N2-(3-pyrazol-1-yl-benzyl)-N4-(2,2,2-trifluoro-ethyl)-pyrido[3,2-d]pyrimidine-2,4-diamine]		< 100 nM	> 25000 nM
C[C@H](Cn1cncn1)Nc1nc(NCC(F)(F)F)c2nc(-c3ccc(OC4CC4)nc3)ccc2n1 [Example 258, N^2-((R)-1-(1H-1,2,4-triazol-1-yl)propan-2-yl)-6-(6-cyclo-propoxypyridin-3-yl)-N^4-(2,2,2-trifluoroethyl)pyrido[3,2-d] pyrimidine-2,4-diamine]	> 10000 nM	< 100 nM	
COc1ccc(-c2ccc3nc(NCCS(N)(=O)=O)nc(NCC(F)(F)F)c3n2)cc1S(C)(=O)=O [Example 172, 2-(6-(4-methoxy-3-(methylsulfonyl)phenyl)-4-(2,2,2-trifluoroethylamino)pyrido[3,2-d]pyrimidin-2-ylamino)ethanesulfonamide]	> 10000 nM	100 to 250 nM	
C[C@@H](Nc1nc(NC2(C(F)(F)F)CCCC2)c2nc(-c3ccc(F)cc3)ccc2n1)c1ccc(S(N)(=O)=O)cc1 [Example 71, (R)-4-(1-(6-(4-fluorophenyl)-4-(1-(trifluoromethyl)cyclo-pentylamino)pyrido[3,2-d]pyrimidin-2-ylamino)ethyl) benzenesulfonamide]	> 10000 nM	250 to 2000 nM	
C[C@H](Nc1nc(NCc2ccc(S(N)(=O)=O)cc2)nc2ccc(C#CC3CC3)nc12)C(F)(F)F [Example 290, (S)-4-((6-(2-cyclopropyl-ethynyl)-4-(1,1,1-trifluoro-propan-2-ylamino)pyrido [3,2-d]pyrimidin-2-ylamino)methyl)benzene-sulfonamide]	1000 to 10000 nM	< 100 nM	
Cc1nc(C)n(-c2ccc(CNc3nc(OC4(C)CC4)c4nc(-c5cccc(S(C)(=O)=O)c5)ccc4n3)cc2)n1 [Example 203, N-(4-(3,5-dimethyl-1H-1,2,4-triazol-1-yl)benzyl)-4-(1-methylcyclopropoxy)-6-(3-(methylsulfonyl)phenyl)pyrido [3,2-d]pyrimidin-2-amine]	> 10000 nM	< 100 nM	
CS(=O)(=O)c1cc(-c2ccc3nc(NCc4ccc(-n5cncn5)cc4)nc(O[C@@H]4C[C@@H]5C[C@@H]5C4)c3n2)ccc1OC(F)F [Example 195, N-(4-(1H-1,2,4-triazol-1-yl)benzyl)-4-((1S,3r,5R)-bicyclo[3.1.0]hexan-3-yloxy)-6-(4-(difluoromethoxy)-3-(methylsulfonyl)phenyl)pyrido [3,2-d]pyrimidin-2-amine]	1000 to 10000 nM	< 100 nM	
NS(=O)(=O)c1ccc(CNc2nc(NC3(C(F)(F)F)CC3)c3nc(-c4cccc(N5CCCS5(=O)=O)c4)ccc3n2)cc1 [Example 51, 4-((6-(3-(1,1-dioxo-isothiazolidin-2-yl)phenyl)-4-(1-(trifluoromethyl)cyclopropyl-amino)pyrido[3,2-d]pyrimidin-2-ylamino)methyl)benzene-sulfonamide]	1000 to 10000 nM	250 to 2000 nM	
CCOc1ccc(-c2ccc3nc(NCc4ccc(-n5cncn5)cc4)nc(OC4(C)CC4)c3n2)cc1S(N)(=O)=O [Example 263, 5-(2-(4-(1H-1,2,4-triazol-1-yl)benzylamino)-4-(1-methylcyclopropoxy)pyrido [3,2-d)pyrimidin-6-yl)-2-ethoxybenzenesulfonamide]	1000 to 10000 nM	< 100 nM	
NS(=O)(=O)c1ccc(CNc2nc(NC3(C(F)(F)F)CC3)c3nc(-c4cccc(C(F)(F)F)c4)ccc3n2)cc1 [Example 80, 4-((4-(1-(trifluoromethyl)cyclopropylamino)-6-(3-(trifluoromethyl)phenyl)pyrido [3,2-d]pyrimidin-2-ylamino)methyl)benzenesulfonamide]	1000 to 10000 nM	250 to 2000 nM	
CS(=O)(=O)c1cccc(-c2ccc3nc(NC4CC4)nc(NCC(F)(F)F)c3n2)c1 [Example 138, N^2-cyclopropyl-6-(3-(methylsulfonyl)phenyl)-N^4-(2,2,2-trifluoroethyl)pyrido [3,2-d]pyrimidine-2,4-diamine]	> 10000 nM	100 to 250 nM	
CC[C@@H](Nc1nc(NCC(F)(F)F)c2nc(-c3ccc(F)cc3)ccc2n1)c1ccc(S(N)(=O)=O)cc1 [Example 12, (R)-4-{1-[6-(4-Fluoro-phenyl)-4-(2,2,2-trifluoro-ethylamino)-pyrido[3,2-d]pyrimidin-2-ylamino]-propyl}-benzenesulfonamide]		250 to 2000 nM	10000 to 25000 nM
C[C@@H](Nc1nc(OC2CCC2)c2nc(-c3cccc(S(C)(=O)=O)c3)ccc2n1)c1ccc(S(N)(=O)=O)cc1 [Example 200, 4-((R)-1-(4-cyclobutoxy-6-(3-(methylsulfonyl)phenyl)pyrido [3,2-d]pyrimidin-2-ylamino)ethyl)benzenesulfonamide]	> 10000 nM	100 to 250 nM	
C[C@H](Cn1cncn1)Nc1nc(NCC(F)(F)F)c2nc(-c3cccc(S(C)(=O)=O)c3)ccc2n1 [Example 168, N^2-((R)-1-(1H-1,2,4-triazol-1-yl)propan-2-yl)-6-(3-(methylsulfonyl)phenyl)-N^4-(2,2,2-trifluoroethyl)pyrido [3,2-d]pyrimidine-2,4-diamine]	> 10000 nM	100 to 250 nM	
NS(=O)(=O)c1cc(CNc2nc(NC3(C(F)(F)F)CC3)c3nc(-c4ccc(F)cc4)ccc3n2)ccc1F [Example 25, 2-fluoro-5-{[6-(4-fluorophenyl)-4-(1-trifluoromethyl-cyclopropylamino)-pyrido[3,2-d]pyrimidin-2-ylamino]-methyl}-benzenesulfonamide]	> 10000 nM	< 100 nM	
CS(=O)(=O)c1cc(-c2ccc3nc(NCc4ccc(-n5cncn5)cc4)nc(NCC(F)(F)F)c3n2)ccc1OC(F)F [Example 175, N^2-(4-(1H-1,2,4-triazol-1-yl)benzyl)-6-(4-(difluoro-methoxy)-3-(methylsulfonyl)phenyl)-N^4-(2,2,2-trifluoroethyl) pyrido[3,2-d]pyrimidine-2,4-diamine]	> 10000 nM	< 100 nM	
C[C@@H](Nc1nc(NC2(C(F)(F)F)CC2)c2nc(-c3ccc(F)nc3)ccc2n1)c1ccc(S(N)(=O)=O)cc1 [Example 79, 4-((R)-1-(6-(6-fluoropyridin-3-yl)-4-(1-(trifluoromethyl)cyclopropylamino)pyrido[3,2-d]pyrimidin-2-ylamino)ethyl) benzenesulfonamide]	> 10000 nM	< 100 nM	
Fc1ccc(-c2ccc3nc(NCc4ccc(-n5cncn5)cc4)nc(NC4(C(F)(F)F)CC4)c3n2)cc1 [Example 81, N^2-(4-(1H-1,2,4-triazol-1-yl)benzyl)-6-(4-fluorophenyl)-N^4-(1-(trifluoromethyl)cyclopropyl)pyrido[3,2-d] pyrimidine-2,4-diamine]	1000 to 10000 nM	250 to 2000 nM	
COc1ccc(-c2ccc3nc(NCCS(N)(=O)=O)nc(NC4(C(F)(F)F)CC4)c3n2)cc1S(C)(=O)=O [Example 93, 2-(6-(4-methoxy-3-(methylsulfonyl)phenyl)-4-(1-(trifluoromethyl)cyclopropyl-amino)pyrido[3,2-d]pyrimidin-2-ylamino)ethanesulfonamide]	1000 to 10000 nM	< 100 nM	
COc1ccc(-c2ccc3nc(NCc4ccc(S(N)(=O)=O)cc4)nc(NC(C(F)(F)F)C(F)(F)F)c3n2)cc1S(C)(=O)=O [Example 151, 4-((4-(1,1,1,3,3,3-hexafluoropropan-2-ylamino)-6-(4-methoxy-3-(methylsulfonyl)phenyl)pyrido[3,2-d]pyrimidin-2-ylamino)methyl)benzene-sulfonamide]	1000 to 10000 nM	< 100 nM	

From patent US8536187B2 (Gilead Sciences, Inc., priority 2008, dated 2013)
